Assays:
[1] = target: T1, B1R receptor of the rat (rB1R) (Rattus norvegicus, UniProt P97583); experiment: Functional FLIPR Ca2+ assay on the bradykinin 1 receptor, rat (rB1R CHO K1 cells); type: cell-based; conditions: test substance 10 μM; CHO K1 cells transfected with rat B1R gene; agonist Des-Arg9-bradykinin at EC80; % inhibition compared with maximum achievable inhibition; read-out: B1R antagonism, rat [10 μM] % inhibition
T1 construct: expressed in transfected cells; host or cells: CHO K1 cells (Chinese hamster ovary), stably transfected
T1 sequence (P97583 1-337): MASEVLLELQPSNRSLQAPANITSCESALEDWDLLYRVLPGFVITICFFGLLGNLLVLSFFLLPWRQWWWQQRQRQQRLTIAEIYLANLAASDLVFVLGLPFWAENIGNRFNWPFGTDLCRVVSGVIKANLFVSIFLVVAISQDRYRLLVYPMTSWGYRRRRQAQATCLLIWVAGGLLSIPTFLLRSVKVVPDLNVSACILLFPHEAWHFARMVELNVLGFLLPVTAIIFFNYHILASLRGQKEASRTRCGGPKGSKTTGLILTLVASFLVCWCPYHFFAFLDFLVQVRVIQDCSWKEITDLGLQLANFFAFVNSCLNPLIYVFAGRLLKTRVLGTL
How it was run: (§1)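 Stably transfected CHO K1 cells expressing human or rat B1R, Fluo-4-loaded, Ca2+ influx read by FLIPR (peak fluorescence). Compounds (10 μM for % activation) preincubated 10-20 min, then EC80 agonist added: Lys-Des-Arg9-bradykinin for human, Des-Arg9-bradykinin for rat; % inhibition versus maximal inhibition, IC50 from concentration series.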

[2] = target: T2, human B1R receptor (hB1R) (Homo sapiens, UniProt P46663); experiment: Functional FLIPR Ca2+ assay on the bradykinin 1 receptor, human (hB1R CHO K1 cells); type: cell-based; conditions: test substance 10 μM; CHO K1 cells transfected with human B1R gene; agonist Lys-Des-Arg9-bradykinin at EC80; % inhibition compared with maximum achievable inhibition; read-out: B1R antagonism, human (10 μM] % inhibition
T2 construct: expressed in transfected cells; host or cells: CHO K1 cells (Chinese hamster ovary), stably transfected
T2 sequence (P46663 1-353): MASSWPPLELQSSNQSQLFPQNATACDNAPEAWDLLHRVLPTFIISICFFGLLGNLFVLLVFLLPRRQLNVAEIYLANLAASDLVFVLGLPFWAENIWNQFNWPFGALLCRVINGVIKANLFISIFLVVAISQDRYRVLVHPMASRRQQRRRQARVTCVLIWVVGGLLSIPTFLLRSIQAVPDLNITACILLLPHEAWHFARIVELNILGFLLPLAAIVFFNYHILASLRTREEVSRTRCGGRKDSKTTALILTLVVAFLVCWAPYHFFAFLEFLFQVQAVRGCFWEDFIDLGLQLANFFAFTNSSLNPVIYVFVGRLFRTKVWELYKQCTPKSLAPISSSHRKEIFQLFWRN
How it was run: as §1

Structure (SMILES)	inhibition at 10 µM [1] [%]	inhibition at 10 µM [2] [%]
Cc1cc(S(=O)(=O)N2CCCCC2CCC(=O)N2CCc3sccc3C2c2ccncc2)c(C)cc1Cl (stereo not drawn) [Example 55, 3-[1-[(4-chloro-2,5-dimethyl-phenyl)sulfonyl]-piperidin-2-yl]-1-(4-pyridin-4-yl-4,5,6,7-tetrahydro-thieno[3,2-c]pyridin-5-yl)-propan-1-one]	103	88
COc1cc(C)c(S(=O)(=O)N2CCCCC2COCC(=O)N2CCc3onc(-c4ccc(F)cc4)c3C2)c(C)c1 (stereo not drawn) [Example 25, 1-(3-(4-fluorophenyl)-6,7-dihydroisoxazolo[4,5-c]pyridin-5(4H)-yl)-2-((1-(4-methoxy-2,6-dimethylphenylsulfonyl)piperidin-2-yl)methoxy)ethanone]	103	86
O=C(C[C@@H](NS(=O)(=O)c1ccc2ccccc2c1)c1ccccc1)N1CCc2onc(-c3ccncc3)c2C1 [Example 03, I—N-(3-oxo-1-phenyl-3-(3-(pyridin-4-yl)-6,7-dihydroisoxazolo[4,5-c]pyridin-5(4H)-yl)propyl)naphthalene-2-sulfonamide]	102	83
Cc1cc(S(=O)(=O)N2CCCCC2CCC(=O)N2CCc3sccc3C2c2ccc(Cl)nc2)c(C)cc1Cl (stereo not drawn) [Example 33, 3-(1-(4-chloro-2,5-dimethylphenylsulfonyl)piperidin-2-yl)-1-(4-(6-chloropyridin-3-yl)-6,7-dihydrothieno[3,2-c]pyridin-5(4H)-yl)propan-1-one]	35	40
COc1cc(C)c(S(=O)(=O)N2CCCCC2COCC(=O)N2CCc3sccc3C2c2ccc(C)cc2)c(C)c1 (stereo not drawn) [Example 07, 2-((1-(4-methoxy-2,6-dimethylphenylsulfonyl)piperidin-2-yl)methoxy)-1-(4-p-tolyl-6,7-dihydrothieno[3,2-c]pyridin-5(4H)-yl)ethanone]	104	69
COc1cc(C)c(S(=O)(=O)N2CCCCC2COCC(=O)N2CCc3nc(Cc4ccncc4)sc3C2)c(C)c1 (stereo not drawn) [Example 38, 2-((1-(4-methoxy-2,6-dimethylphenylsulfonyl)piperidin-2-yl)methoxy)-1-(2-(pyridin-4-ylmethyl)-6,7-dihydrothiazolo[5,4-c]pyridin-5(4H)-yl)ethan-1-one]	97	99
COc1cc(C)c(S(=O)(=O)N2CCCCC2CCCC(=O)N2CCc3nc(Cc4ccncc4)sc3C2)c(C)c1 (stereo not drawn) [Example 43, 4-(1-(4-methoxy-2,6-dimethylphenylsulfonyl)piperidin-2-yl)-1-(2-(pyridin-4-ylmethyl)-6,7-dihydrothiazolo[5,4-c]pyridin-5(4H)-yl)butan-1-one]	99	99
Cc1cccc(Cl)c1S(=O)(=O)N(CCOCC(=O)N1CCc2sc(CN3CCCCC3)cc2C1)C1CC1 [Example 60, 2-chloro-N-cyclopropyl-6-methyl-N-[2-[2-oxo-2-[2-(piperidin-1-yl-methyl)-4,5,6,7-tetrahydro-thieno[3,2-c]pyridin-5-yl]-ethoxy]-ethyl]-benzenesulfonic acid amide]	106	100
COc1cc(C)c(S(=O)(=O)N2CCCCC2COCC(=O)N2CCc3onc(CN(C)C)c3C2)c(C)c1 (stereo not drawn) [Example 31, 1-(3-((dimethylamino)methyl)-6,7-dihydroisoxazolo[4,5-c]pyridin-5(4H)-yl)-2-((1-(4-methoxy-2,6-dimethylphenylsulfonyl)piperidin-2-yl)methoxy)ethanone]	105	100
COc1cc(C)c(S(=O)(=O)N2CCCCC2CCCC(=O)N2CCc3sc(CN4CCN(C)CC4)cc3C2)c(C)c1 (stereo not drawn) [Example 47, 4-(1-(4-methoxy-2,6-dimethylphenylsulfonyl)piperidin-2-yl)-1-(2-((4-methylpiperazin-1-yl)methyl)-6,7-dihydrothieno[3,2-c]pyridin-5(4H)-yl)butan-1-one]	101	100
COc1cc(C)c(S(=O)(=O)N(C)CCOCC(=O)N2CCc3onc(CN(C)C)c3C2)c(C)c1 [Example 32, N-(2-(2-(3-((dimethylamino)methyl)-6,7-dihydroisoxazolo[4,5-c]pyridin-5(4H)-yl)-2-oxoethoxy)ethyl)-4-methoxy-N,2,6-trimethylbenzenesulfonamide]	104	99
COc1cc(C)c(S(=O)(=O)N2CCCCC2COCC(=O)N2CCc3onc(CN4CCCCC4)c3C2c2ccccc2)c(C)c1 (stereo not drawn) [Example 126, 2-((1-(4-Methoxy-2,6-dimethylphenylsulfonyl)piperidin-2-yl)methoxy)-1-(4-phenyl-3-(piperidin-1-ylmethyl)-6,7-dihydroisoxazolo[4,5-c]pyridin-5(4H)-yl)ethanone]	104	90

Source: US8268814B2, “Substituted sulfonamide compounds” (Gruenenthal GmbH, priority 2008, dated 2012)
